Holding throughout (assay): growth of human tumour cells (NCI), 48 h
The test system of assay [1] is HL-60(TB) leukemia.
Assay [2] deals with HS 578T breast.
Assay [3] deals with K-562 leukemia.
Assay [4] has as its system M14 melanoma.
For assay [5], the system named is OVCAR-5 ovarian.
Assay [6] deals with SR leukemia.
Assay [7] deals with T-47D breast.
For assay [8], the system named is UACC-257 melanoma.
Assay [9] relates to UO-31 renal.
For assay [10], the system named is IGROV1 ovarian.

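96-well plates; 48 h exposure; 5 concentrations. Endpoints by linear interpolation between flanking doses. Not reached: highest tested concentration assigned. Abbreviation: GI50, concentration required for 50% inhibition of growth. TGI: total growth inhibition.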 A value given as a limit tells only on which side of the number the result lay.

On to `COc1ccc(-c2oc(=O)ccc2-c2cc(OC)c(OC)c(OC)c2)cc1F`, for which the GI50 in assay [1] is 3.52 µM; in [2], 23.9 µM; in assay [3], 4.08 µM; in assay [4] it was 14.1 µM; in assay [5], 35.6 µM; in assay [6], 1.57 µM. The GI50 is 23.9 µM in [7], 31.5 µM in [8] and 8.79 µM in assay [9]. Besides, the TGI is 26.8 µM in assay [1]; over 100 µM in [2]; over 100 µM in assay [3]; over 100 µM in assay [4]; over 100 µM in assay [5]; 9.44 µM in [6]. In addition, the TGI in assay [7] was over 100 µM; in assay [8], over 100 µM; in assay [9] it was 35.8 µM.
Regarding `CCCNC(=S)/N=C/c1c(O)c2ccccc2[nH]c1=O`, the TGI in [1], in assay [2], in assay [10], in assay [3], in assay [4] and in [5] was over 100 µM in each case. For the same molecule, the TGI in assay [7], in assay [8] and in [9] was over 100 µM throughout.
With `Cn1cnc([N+](=O)[O-])c1S(=O)(=O)Oc1ccccc1`, the GI50 in assay [1] was 12.1 µM; in assay [2], 24.6 µM; in assay [10] it was 2.21 µM; in [3], 2.52 µM; in assay [4], 11.1 µM; in assay [5], 23.9 µM. Also, the GI50 in assay [7] was 2.3 µM; in assay [8] it was 3.84 µM; in [9], 1.68 µM. Also, the TGI was 34.4 µM in [1]; over 80.5 µM in [2]; 4.76 µM in [10]; 15.5 µM in assay [3]; 27.3 µM in assay [4]; 74.9 µM in assay [5]. The TGI was 7.73 µM in [7], 16.3 µM in assay [8] and 3.47 µM in assay [9].
With `COc1ccccc1N1CCN(CCCn2c(=O)c3c(OC)nc(C)cc3c(=O)n2-c2ccccc2)CC1`, the GI50 in assay [1], in assay [2], in assay [10], in [3], in assay [4] and in [5] was over 100 µM throughout. For the same molecule, the GI50 in assay [6], in assay [7] and in [9] was over 100 µM in each case. The TGI in [1], in assay [2], in assay [10], in assay [3], in assay [4] and in assay [5] was over 100 µM in each case. Besides, the TGI in [6], in assay [7] and in assay [9] was over 100 µM in each case.
Consider `COc1ccncc1C#Cc1cncc(C(=O)Nc2ccc(CN3CCN(C)CC3)c(C(F)(F)F)c2)c1`, for which the GI50 in assay [1] is 7.4 µM; in assay [2] it was 7.75 µM; in assay [10], 8.57 µM; in assay [3], 0.0229 µM; in [4], 10.1 µM; in [5], 23 µM. For the same molecule, the GI50 in assay [7] is 89.1 µM; in assay [8], 21.5 µM; in assay [9] it was 15.4 µM. In addition, the TGI in assay [1] is 46.7 µM; in [2], 52.5 µM; in [10], 84.2 µM; in assay [3] it was over 100 µM; in assay [4] it was 39.6 µM; in assay [5] it was over 100 µM. For the same molecule, the TGI in assay [7], in assay [8] and in [9] was over 100 µM in each case.
As for `C=CCCCCCCCCCCC1(O)C=CC2=[N+](CCCCCN=C(N)N)CCCN21` (stereo unspecified), the GI50 in [2] is 3.82 µM; in assay [10] it was 10.9 µM; in [3] it was 2.76 µM; in assay [4] it was 22.8 µM; in assay [5], 6.25 µM; in [7], 22 µM. For the same molecule, the GI50 in assay [8] was 22.7 µM; in assay [9], 17 µM. The TGI in assay [2] was 13.1 µM; in assay [10], 30.1 µM; in assay [3], 15.9 µM; in [4], over 51.5 µM; in [5], 20.8 µM; in assay [7] it was 55.6 µM. The TGI in assay [8] is over 55.7 µM; in assay [9] it was 36.5 µM.
Regarding `O=C1NC(=S)NNC12c1ccccc1-c1ccccc12`, the TGI in assay [1], in [2], in [10], in assay [3], in assay [4] and in [6] was over 10 µM each time. In addition, the TGI in [7], in assay [8] and in [9] was over 10 µM throughout.
In the case of `CC(C)=CCc1cc(O)cc2c1OC(C=C(C)C)C1=C2C(=O)C2=C(NCCS2(=O)=O)C1=O` (stereo unspecified), the GI50 in assay [2] was 3.48 µM; in assay [10] it was 2.15 µM; in [3], 3.07 µM; in assay [4], 0.646 µM; in assay [5], 3.72 µM; in assay [7], 3.32 µM. Moreover, the GI50 in assay [8] was 2.3 µM; in assay [9], 2.03 µM. The TGI in assay [2] was 11.9 µM; in assay [10], 5.43 µM; in assay [3] it was 14.6 µM; in assay [4] it was 2.69 µM; in [5], 7.01 µM; in assay [7], 14.1 µM. The TGI in assay [8] amounted to 4.61 µM; in assay [9], 6.05 µM.
With `NS(=O)(=O)c1ccc(N(/C=C/C(=O)C(F)(F)F)CC(=O)c2ccc(Cl)cc2)cc1`, the GI50 in assay [2] was over 100 µM; in assay [10], 22.5 µM; in assay [3] it was 33.5 µM; in assay [5], 57 µM; in [7] it was 63.6 µM; in assay [8], 50.9 µM. In addition, the GI50 in [9] was 45.3 µM. For the same molecule, the TGI is over 100 µM in [2]; 81.7 µM in assay [10]; 93.6 µM in assay [3]; over 100 µM in assay [5]; over 100 µM in [7]; over 100 µM in assay [8]. The molecule further came in with a TGI in [9] of over 100 µM.

For the origin of these results see PubChem BioAssay (NCI).
